Test results as given in US10563216B2, “Compositions and methods of delivering molecules to plants” (Bloomsburg University of Pennsylvania, priority 2016, dated 2020).

Tested on: AvsYS1 avenic acid/Fe+3 transporter
Test: Yeast growth assay in liquid medium; only iron available is Fe+3 complexed with the phytosiderophore or analog; DEY1453:pJKD1 (pYES2/AvsYS1) vs DEY1453:pYES2
Type: cell-based, Avena sativa
Details: for growth of yeast transformants containing pJKD1 (AvsYS1 transporter): S. cerevisiae DEY1453:pJKD1, ferric iron supplied only as complex with the substance, YNB pH 7.5, BPDS
Excerpt: AvsYS1 (Genbank FJ477297.1) was isolated using 5′RACE from the roots of iron starved oats (Avena sativa). Primers were designed by comparing one functionally confirmed phytosiderophore/Fe′ transporter (HvYS1) and other iron transport proteins. After obtaining a full-length clone, we subcloned the gene (AvsYS1) into a yeast galactose inducible expression vector (pYES2). The resultant plasmid was designated pJKD1. We obtained a yeast strain that lacks the ability to take up ferric iron, and transformed it with pYES2 and pJKD1. The transformants were grown under identical conditions in which the only iron available was in the Fe^+3/avenic acid complex.
We engineered the AvsYS1 gene into a galactose inducible expression systems vector (pYES2). Our first major result was the functional confirmation of the AvsYS1 gene. We transformed pYES2 and pJKD1 (pYES2/AvsYS1) into a strain of S. cerevisiae (DEY1453) that lacks the ability to take up Fe^+3. In the process, we developed a new assay based on growth in liquid medium. The advantage of this assay over more traditional assays used in yeast-based PS/Fe^+3 assays is that it is quantifiable. Other assays (e.g., Murata, 2006) grow yeast on a solid plate, and qualitative growth of colonies is used. With our assay, we can generate numerical data based on the density as measured by the absorbance at 600 nm. […] Further detail is provided below.
Protocols included: 53Y and 53K in DOB+FeSO4, 53Y and 53K in YNB supplemented with Avenic acid; 53Y and 53K supplemented with BPA-1-068B; 53Y and 53K in YNB w/no supplements; uninoculated YNB; uninoculated DOB.
Protocols included: 53Y and 53K, supplemented with Avenic acid, 53Y and 53K supplemented with BPA-1-068B, 53Y and 53K in YNB w/no supplements.
Strains grown in YNB/Gal, pH 7.5, Amp50, Avenic acid: Fe^+3, 5:1
Protocols included: 53Y(pYES2) and 53K(pJKD1=pYES2+AvsYS1), supplemented with Avenic acid (red arrows); 53Y and 53K supplemented with BPA-1-068B (blue arrows); 53Y and 53K in YNB w/no supplements.

Structure (SMILES) | growth rate of DEY1453:pJKD1 (Fe+3 complexed with the analog, robustness compared to DEY1453:pYES2 controls) | growth of yeast transformants containing pJKD1 (AvsYS1 transporter) | growth of yeast transformants with pYES2 (no transporter) (S. cerevisiae DEY1453:pYES2, only iron available is the Fe+3 complex with the substance)
O=C(CC(NCCC(NCC[C@H](O)C(=O)O)C(=O)O)C(=O)O)OCc1ccccc1O (some centres unmarked) [BPA-1-068B] | slower, but undeniably robust | able to grow | 
O=C(O)C(CO)NCCC(NCC[C@H](O)C(=O)O)C(=O)O (some centres unmarked) [MGS-2-128BF] |  | supported growth as well as avenic acid | 
O=C(O)C(CCO)NCCC(NCC[C@H](O)C(=O)O)C(=O)O (some centres unmarked) [avenic acid] |  | able to grow vigorously | could not
